Test results published in US20260272906A1, “PERIPHERALLY RESTRICTED LPAR1 ANTAGONISTS AND USES THEREOF” (CONTINEUM THERAPEUTICS, INC., priority 2024, published 2026).

What was measured:
human LPA1 = human LPA1 (Homo sapiens, UniProt Q92633); test: In vitro functional assay of lysophosphatidic acid receptor 1 activity (calcium flux, Fluo-4 NW, LPA 18:1 at EC80); type: cell-based; settings: B103 cells stably expressing human LPA1
Method: Primary compound plates were prepared in 100% DMSO (Sigma-Aldrich), secondary compound plates were prepared at 10× concentration in DMEM (Invitrogen), and tertiary compound plates were prepared at 3× concentration in assay buffer containing HBSS (no Ca^+2/Mg^+2, Invitrogen) and 0.1% BSA (Sigma-Aldrich). Fluo-4 NW calcium assay dye (Invitrogen) was prepared as per manufacturer's recommendations in assay buffer. B103 cells stably expressing human LPA1 (J. Chun lab, UCSD) were grown to confluency in DMEM media (Invitrogen) containing 10% FBS (ATCC), 10% Penicillin-Streptomycin (Sigma-Aldrich) and 50 μg Geneticin (Sigma-Aldrich), and detached with Accutase (Sigma-Aldrich) prior to assay. The freshly detached cells were resuspended in growth media and plated in black, clear-bottom 96-well plates (Costar) containing compound (i.e., secondary compound plate) at a density of 5×10^4 cells/well. Once plated, cells were left at room temperature for 30 minutes and then transferred to a 37° C., 5% CO2 incubator for 24 hours. […] Finally, lysophosphatidic acid (18:1) at the EC80 concentration was added and calcium flux measured using FlexStation 3 (Molecular Devices). Sigmoidal dose-response curves were generated by measuring […] over 45 sec and calculating the area under the curve. […]

[1] = Rat PK: brain penetration after PO dosing; type: in vivo; settings: 10 mg/kg, Rat PK: Dosing PO @ 10 mpk; for Kp uu: read-out: Kp,uu (unbound brain-to-plasma partitioning)

human LPA1, sequence (Q92633 whole entry): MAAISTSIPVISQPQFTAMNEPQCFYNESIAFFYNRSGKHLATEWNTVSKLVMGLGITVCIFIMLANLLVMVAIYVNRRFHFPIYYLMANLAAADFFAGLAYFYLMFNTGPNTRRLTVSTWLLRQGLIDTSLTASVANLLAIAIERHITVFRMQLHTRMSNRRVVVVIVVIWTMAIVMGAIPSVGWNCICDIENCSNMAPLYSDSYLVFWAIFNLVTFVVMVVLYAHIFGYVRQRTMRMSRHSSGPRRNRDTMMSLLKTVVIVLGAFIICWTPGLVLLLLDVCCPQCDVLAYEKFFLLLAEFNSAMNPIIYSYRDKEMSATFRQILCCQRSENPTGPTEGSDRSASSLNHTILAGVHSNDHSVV

Row | SMILES | IC50 (human LPA1) | concentration at 2 h [1] | Kp uu [1]
1 | COc1ccc(NC(=O)N(c2cnccc2C(C)C)[C@H]2CC[C@H](C(=O)O)CC2)c(OC(F)F)n1 [Example 1, trans-4-(3-(2-(difluoromethoxy)-6-methoxypyridin-3-yl)-1-(4-isopropylpyridin-3-yl)ureido)cyclohexane-1-carboxylic acid] | 10 to 100 nM | 290 nM | 0.05
2 | COc1ccc(NC(=O)N(c2ncccc2C(C)C)[C@H]2CC[C@H](C(=O)O)CC2)c(OC(F)F)n1 [Example 2, trans-4-(3-(2-(difluoromethoxy)-6-methoxypyridin-3-yl)-1-(3-isopropylpyridin-2-yl)ureido)cyclohexane-1-carboxylic acid] | 10 to 100 nM | 2100 nM | 0.15
